Experiment: Dissolved water in the solvent layer (extract) of acetic acid extraction
Format: physicochemical
Details: Acid in solvent layer 16.85 wt.%
From the text: Generally as the distribution coefficient goes up, water solubility increases in the extract. The effect for methyl n-amyl ketone and diisobutyl ketone is as follows: […]

CC(C)CC(=O)CC(C)C [diisobutyl ketone]
Dissolved water in solvent layer, wt.%: 3.0 wt.%

CCCCCC(C)=O [methyl n-amyl ketone]
Dissolved water in solvent layer, wt.%: 5.0 wt.%

From EP0134650B1, “High boiling solvent system for recovery of acetic acid from aqueous solutions” (CELANESE CORPORATION, priority 1983, dated 1985)
